# Data taken from publication PMC4015961, “New colorimetric screening assays for the directed evolution of fungal laccases to improve the conversion of plant biomass” (BMC Biotechnology, 2013).
# Where two headings read alike, the source gives them in different places.
# How the values were obtained:
# [1] = biological target: T1, R2 LRPL (Thermothelomyces thermophilus, UniProt G2QG31); experiment: endpoint absorbance increase at […] nm; type: biochemical; conditions: 2 mM acetosyringone; tartrate pH 4.0; yeast supernatant
# T1 construct: gene lcc1; secreted by S. cerevisiae, crude supernatant
# [2] = tested on: T2, Trametes villosa laccase (TvL); conditions: sodium tartrate pH 4.0; crude commercial enzyme
# T2 construct: gene LCC1
# [3] = biological target: T1, R2 LRPL; experiment: endpoint absorbance increase at […] nm; type: biochemical; conditions: 250 μM sinapic acid; tartrate pH 4.0; yeast supernatant
# [4] = tested on: T3, Trametes villosa laccase (TvL); experiment: absorbance increase at […] nm; type: biochemical; conditions: sodium tartrate pH 4.0; crude commercial enzyme
# T3 construct: gene LCC1; crude commercial laccase preparation, Novozymes
# [5] = tested on: T3, Trametes villosa laccase (TvL); experiment: absorbance increase at […] nm; type: biochemical; conditions: sodium tartrate pH 4.0; crude commercial enzyme; assigned by order of preceding sentence and Figure 2A-C
# T1 sequence (G2QG31 entry or part of it): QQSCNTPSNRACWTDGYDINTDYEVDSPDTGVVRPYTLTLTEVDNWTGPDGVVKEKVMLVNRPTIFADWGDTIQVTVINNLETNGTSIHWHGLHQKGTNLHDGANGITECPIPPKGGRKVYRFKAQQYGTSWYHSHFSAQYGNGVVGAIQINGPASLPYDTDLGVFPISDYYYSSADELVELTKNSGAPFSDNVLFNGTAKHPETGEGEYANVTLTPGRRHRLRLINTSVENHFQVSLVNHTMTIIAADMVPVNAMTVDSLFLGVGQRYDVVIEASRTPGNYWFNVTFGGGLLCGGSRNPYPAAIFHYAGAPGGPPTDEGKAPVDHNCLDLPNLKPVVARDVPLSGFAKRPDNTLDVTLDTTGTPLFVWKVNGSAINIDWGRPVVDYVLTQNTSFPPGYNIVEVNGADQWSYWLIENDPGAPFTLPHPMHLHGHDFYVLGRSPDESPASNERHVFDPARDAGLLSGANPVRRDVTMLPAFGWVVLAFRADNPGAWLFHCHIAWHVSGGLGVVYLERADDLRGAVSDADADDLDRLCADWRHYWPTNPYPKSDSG
structure (smiles),measurement,setting,value
"COc1cc(C(C)=O)cc(OC)c1O [acetosyringone, 3′,5′-dimethoxy-4′-hydroxyacetophenone]",endpoint absorbance increase at 520 nm,[1],colored responses were linear (absorbance increased with increasing volumes of supernatant) with both laccases
same,Km,[2],93 µM
COc1cc(/C=C/C(=O)O)cc(OC)c1O [sinapic acid],endpoint absorbance increase at 512 nm,[3],colored responses were linear (absorbance increased with increasing volumes of supernatant) with both laccases
same,Km,[4],85 µM
"COc1cc(C=O)cc(OC)c1O [syringaldehyde, 3,5-dimethoxy-4-hydroxybenzaldehyde]",Km,[5],120 µM
